Source: US12139520B2 (priority 2020, dated 2024)
Bridge positions count the residues as written; N and C are the ends. Square brackets hold non-standard residues; d marks the D form. Peptide text beside a SMILES is read from it. Hyp = O=C(O)[C@@H]1C[C@@H](O)CN1; Cit = NC(=O)NCCC[C@H](N)C(=O)O

Legend:
hAMY3 receptor = molecular target: T1, hAMY3 receptor (Homo sapiens, UniProt O60896+P30988); test: cAMP assay for in vitro receptor activation, hAMY3-R; assay type: cell-based; conditions: cAMP assay, hAMY3 receptor; read-out: hAMY3R EC50
T1 sequence (P30988 25-474): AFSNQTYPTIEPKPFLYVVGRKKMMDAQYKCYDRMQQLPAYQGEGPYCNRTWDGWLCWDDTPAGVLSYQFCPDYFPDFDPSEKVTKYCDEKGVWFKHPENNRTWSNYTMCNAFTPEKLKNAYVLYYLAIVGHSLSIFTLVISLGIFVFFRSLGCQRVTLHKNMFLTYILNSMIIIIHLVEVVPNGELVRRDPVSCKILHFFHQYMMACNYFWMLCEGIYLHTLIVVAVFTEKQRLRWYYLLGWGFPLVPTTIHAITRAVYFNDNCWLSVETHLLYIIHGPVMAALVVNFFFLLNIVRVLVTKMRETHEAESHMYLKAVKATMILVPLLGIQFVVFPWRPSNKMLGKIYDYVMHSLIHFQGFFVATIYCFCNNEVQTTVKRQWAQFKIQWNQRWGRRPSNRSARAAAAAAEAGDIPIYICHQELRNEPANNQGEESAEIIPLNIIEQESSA
T1 sequence (O60896 24-148 partner): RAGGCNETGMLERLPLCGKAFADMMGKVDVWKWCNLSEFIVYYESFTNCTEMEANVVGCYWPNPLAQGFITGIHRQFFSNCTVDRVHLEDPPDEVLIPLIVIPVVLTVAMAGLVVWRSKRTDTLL
How it was run: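 Receptor activation was measured as cAMP accumulation in a monoclonal cell line stably overexpressing hAMY3. Stimulation with graded doses lasted 30 min at room temperature in the presence of 0.5 mM IBMX, with human amylin as positive control.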

[1] = Physical stability of peptide analogues (Thioflavin T fibrillation); assay type: physicochemical; conditions: maximum ThT signal normalized between hAMY maximum and buffer background; 40° C., shaking, four days; pH 7 per table title
How it was run: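 1 h in 50 mM NaOAc pH 4 / 50 mM NaPi pH 7; + ThT 4 μM final; 40 °C, 700 rpm linear shake 5 min pre-read; ex 450, em 480 nm q10 min × 4 d; LOESS smoothing; max signal normalised to hAMY max vs buffer blank.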

hAM1 receptor = hAM1 receptor (Homo sapiens, UniProt O60895+Q16602); test: cAMP assay for in vitro receptor activation, hAM1-R; assay type: cell-based; conditions: cAMP assay, hAM1 receptor; read-out: hAM1R EC50
How it was run: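 Receptor activation, read as cAMP, was assessed in thawed cells of a monoclonal hAM1-overexpressing stable line, plated at 8000 cells/well in DPBS supplemented with 0.05% casein and 0.5 mM IBMX.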

Sequence of hAM1 receptor (Q16602 23-461): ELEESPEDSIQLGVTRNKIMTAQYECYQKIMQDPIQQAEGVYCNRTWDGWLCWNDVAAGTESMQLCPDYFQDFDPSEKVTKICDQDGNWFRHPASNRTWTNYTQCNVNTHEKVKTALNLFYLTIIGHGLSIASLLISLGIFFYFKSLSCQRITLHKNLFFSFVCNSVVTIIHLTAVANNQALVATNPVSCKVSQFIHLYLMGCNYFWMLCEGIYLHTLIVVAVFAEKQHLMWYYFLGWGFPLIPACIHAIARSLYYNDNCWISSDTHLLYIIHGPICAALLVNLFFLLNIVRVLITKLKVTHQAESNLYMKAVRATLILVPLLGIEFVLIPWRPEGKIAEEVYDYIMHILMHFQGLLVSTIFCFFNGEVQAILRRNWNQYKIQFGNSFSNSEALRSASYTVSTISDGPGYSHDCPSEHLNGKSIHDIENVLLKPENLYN
Sequence of hAM1 receptor (O60895 43-175 partner): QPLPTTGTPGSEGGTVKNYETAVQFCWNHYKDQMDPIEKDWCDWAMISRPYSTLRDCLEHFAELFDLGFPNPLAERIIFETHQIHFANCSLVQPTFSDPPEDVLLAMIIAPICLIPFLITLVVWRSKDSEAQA

| SMILES | EC50 (hAMY3 receptor) | Max ThT signal (%) [1] | EC50 (hAM1 receptor) |
| --- | --- | --- | --- |
| CC[C@H](C)[C@H](NC(=O)[C@H](CC(N)=O)NC(=O)[C@H](CO)NC(=O)[C@H](CCCNC(=N)N)NC(=O)[C@@H]1CCCN1C(=O)[C@H](C)NC(=O)[C@@H](NC(=O)[C@H](CC(N)=O)NC(=O)[C@H](CC(=O)O)NC(=O)[C@H](CCCCN)NC(=O)[C@H](CC(=O)O)NC(=O)[C@H](CCCCN)NC(=O)[C@H](CC(=O)O)NC(=O)[C@@H](NC(=O)[C@H](Cc1ccccc1)NC(=O)[C@H](CCC(N)=O)NC(=O)[C@H](Cc1ccc(O)cc1)NC(=O)[C@@H](NC(=O)[C@H](CCC(N)=O)NC(=O)[C@H](Cc1c[nH]cn1)NC(=O)[C@H](C)NC(=O)[C@H](CC(C)C)NC(=O)[C@H](CCCNC(N)=O)NC(=O)[C@H](CCC(N)=O)NC(=O)[C@@H](NC(=O)[C@@H](NC(=O)[C@@H]1CSSC[C@H](NC(=O)CN)C(=O)N[C@@H](CCCNC(=N)N)C(=O)N[C@@H]([C@@H](C)O)C(=O)NCC(=O)N[C@@H]([C@@H](C)O)C(=O)N1)[C@@H](C)O)C(C)C)[C@@H](C)CC)[C@@H](C)O)C(C)C)C(=O)NCC(=O)N1CCC[C@H]1C(=O)N[C@@H](CC(N)=O)C(=O)NCC(=O)N1C[C@H](O)C[C@H]1C(N)=O [compound 297] (H-GCRTGTCTVQ[Cit]LAHQIYQFTDKDKDNVAPRSNIGPNG[Hyp]-NH2; disulfide 2-7; N-terminus assumed) | 0.026 nM | 27.500% | > 5000 nM |
| CC[C@H](C)[C@H](NC(=O)[C@H](CCC(N)=O)NC(=O)[C@H](Cc1c[nH]cn1)NC(=O)[C@H](C)NC(=O)[C@H](CC(C)C)NC(=O)[C@H](CCCNC(=N)N)NC(=O)[C@H](CCC(N)=O)NC(=O)[C@@H](NC(=O)[C@@H](NC(=O)[C@@H]1CSSC[C@H](NC(=O)[C@@H](N)CCCCN)C(=O)N[C@@H](CC(N)=O)C(=O)N[C@@H]([C@@H](C)O)C(=O)N[C@@H](C)C(=O)N[C@@H]([C@@H](C)O)C(=O)N1)[C@@H](C)O)C(C)C)C(=O)N[C@@H](Cc1ccc(O)cc1)C(=O)N[C@@H](CCC(N)=O)C(=O)N[C@@H](Cc1ccccc1)C(=O)N[C@@H](CC(=O)O)C(=O)N[C@@H](CCCCN)C(=O)N[C@@H](CC(=O)O)C(=O)N[C@@H](CCCCN)C(=O)N[C@@H](CC(=O)O)C(=O)N[C@@H](CC(N)=O)C(=O)N[C@H](C(=O)N[C@@H](C)C(=O)N1CCC[C@H]1C(=O)N1CCC[C@H]1C(=O)N[C@H](C(=O)N[C@@H](CC(N)=O)C(=O)N[C@H](C(=O)NCC(=O)N[C@@H](CO)C(=O)N[C@@H](CC(N)=O)C(=O)NCC(=O)N1C[C@H](O)C[C@H]1C(N)=O)C(C)C)[C@@H](C)O)C(C)C [compound 65] (H-KCNTATCTVQRLAHQIYQFDKDKDNVAPPTNVGSNG[Hyp]-NH2; disulfide 2-7; N-terminus assumed) | 0.012 nM | 1.000% | > 5000 nM |
| CC[C@H](C)[C@H](NC(=O)[C@H](CCC(N)=O)NC(=O)[C@H](Cc1c[nH]cn1)NC(=O)[C@H](C)NC(=O)[C@H](CC(C)C)NC(=O)[C@H](CCCNC(=N)N)NC(=O)[C@H](CCC(N)=O)NC(=O)[C@@H](NC(=O)[C@@H](NC(=O)[C@@H]1CSSC[C@H](NC(=O)[C@@H](N)CCCCN)C(=O)N[C@@H](CC(N)=O)C(=O)N[C@@H]([C@@H](C)O)C(=O)N[C@@H](C)C(=O)N[C@@H]([C@@H](C)O)C(=O)N1)[C@@H](C)O)C(C)C)C(=O)N[C@@H](Cc1ccc(O)cc1)C(=O)N[C@@H](CCC(N)=O)C(=O)N[C@@H](Cc1ccccc1)C(=O)N[C@H](C(=O)N[C@@H](CC(=O)O)C(=O)N[C@@H](CCCCN)C(=O)N[C@@H](C)C(=O)N[C@@H](CCCCN)C(=O)N[C@@H](CC(=O)O)C(=O)N[C@@H](CC(N)=O)C(=O)N[C@H](C(=O)N[C@@H](C)C(=O)N1CCC[C@H]1C(=O)N1CCC[C@H]1C(=O)N[C@H](C(=O)N[C@@H](CC(N)=O)C(=O)N[C@H](C(=O)NCC(=O)N[C@@H](CO)C(=O)N[C@@H](CC(N)=O)C(=O)NCC(=O)N1C[C@H](O)C[C@H]1C(N)=O)C(C)C)[C@@H](C)O)C(C)C)[C@@H](C)O [compound 43] (H-KCNTATCTVQRLAHQIYQFTDKAKDNVAPPTNVGSNG[Hyp]-NH2; disulfide 2-7; N-terminus assumed) | 0.01 nM | 1.200% | > 5000 nM |

These reach a lower EC50 (hAMY3 receptor). Values come first.

| EC50 (hAMY3 receptor) | Max ThT signal (%) [1] | EC50 (hAM1 receptor) | SMILES |
| --- | --- | --- | --- |
| 0.006 nM | 15.600% | > 5000 nM | CC[C@H](C)[C@H](NC(=O)[C@H](CCC(N)=O)NC(=O)[C@H](Cc1c[nH]cn1)NC(=O)[C@H](C)NC(=O)[C@H](CC(C)C)NC(=O)[C@H](CCCNC(N)=O)NC(=O)[C@H](CCC(N)=O)NC(=O)[C@@H](NC(=O)[C@@H](NC(=O)[C@@H]1CSSC[C@H](NC(=O)[C@@H](N)CCCCN)C(=O)N[C@@H](CC(N)=O)C(=O)N[C@@H]([C@@H](C)O)C(=O)N[C@@H](C)C(=O)N[C@@H]([C@@H](C)O)C(=O)N1)[C@@H](C)O)C(C)C)C(=O)N[C@@H](Cc1ccc(O)cc1)C(=O)N[C@@H](CCC(N)=O)C(=O)N[C@@H](Cc1ccccc1)C(=O)N[C@@H](C)C(=O)N[C@@H](CC(=O)O)C(=O)N[C@@H](CCCCN)C(=O)N[C@@H](CC(=O)O)C(=O)N[C@@H](CCCCN)C(=O)N[C@@H](CC(=O)O)C(=O)N[C@@H](CC(N)=O)C(=O)N[C@H](C(=O)N[C@@H](C)C(=O)N1CCC[C@H]1C(=O)N1CCC[C@H]1C(=O)N[C@H](C(=O)N[C@@H](CC(N)=O)C(=O)N[C@H](C(=O)NCC(=O)N[C@@H](CO)C(=O)N[C@@H](CC(N)=O)C(=O)NCC(=O)N1C[C@H](O)C[C@H]1C(N)=O)C(C)C)[C@@H](C)O)C(C)C [compound 249] (H-KCNTATCTVQ[Cit]LAHQIYQFADKDKDNVAPPTNVGSNG[Hyp]-NH2; disulfide 2-7; N-terminus assumed) |
| 0.004 nM | 9.600% | > 5000 nM | CC[C@H](C)[C@H](NC(=O)[C@H](CCC(N)=O)NC(=O)[C@H](Cc1c[nH]cn1)NC(=O)[C@H](C)NC(=O)[C@H](CC(C)C)NC(=O)[C@H](CCCNC(N)=O)NC(=O)[C@H](CCC(N)=O)NC(=O)[C@@H](NC(=O)[C@@H](NC(=O)[C@@H]1CSSC[C@H](NC(=O)[C@@H](N)CCCCN)C(=O)N[C@@H](CC(N)=O)C(=O)N[C@@H]([C@@H](C)O)C(=O)N[C@@H](C)C(=O)N[C@@H]([C@@H](C)O)C(=O)N1)[C@@H](C)O)C(C)C)C(=O)N[C@@H](Cc1ccc(O)cc1)C(=O)N[C@@H](CCC(N)=O)C(=O)N[C@@H](Cc1ccccc1)C(=O)N[C@H](C(=O)N[C@@H](CCCCN)C(=O)N[C@@H](CC(=O)O)C(=O)N[C@@H](CCCCN)C(=O)N[C@@H](CC(=O)O)C(=O)N[C@@H](CC(N)=O)C(=O)N[C@H](C(=O)N[C@@H](C)C(=O)N1CCC[C@H]1C(=O)N1CCC[C@H]1C(=O)N[C@H](C(=O)N[C@@H](CC(N)=O)C(=O)N[C@H](C(=O)NCC(=O)N[C@@H](CO)C(=O)N[C@@H](CC(N)=O)C(=O)NCC(=O)N1C[C@H](O)C[C@H]1C(N)=O)C(C)C)[C@@H](C)O)C(C)C)[C@@H](C)O [compound 253] (H-KCNTATCTVQ[Cit]LAHQIYQFTKDKDNVAPPTNVGSNG[Hyp]-NH2; disulfide 2-7; N-terminus assumed) |
| 0.008 nM | 4.200% | > 5000 nM | CC[C@H](C)[C@H](NC(=O)[C@H](CCC(N)=O)NC(=O)[C@H](Cc1c[nH]cn1)NC(=O)[C@H](C)NC(=O)[C@H](CC(C)C)NC(=O)[C@H](CCCNC(=N)N)NC(=O)[C@H](CCC(N)=O)NC(=O)[C@@H](NC(=O)[C@@H](NC(=O)[C@@H]1CSSC[C@H](NC(=O)[C@@H](N)CCCCN)C(=O)N[C@@H](CC(N)=O)C(=O)N[C@@H]([C@@H](C)O)C(=O)N[C@@H](C)C(=O)N[C@@H]([C@@H](C)O)C(=O)N1)[C@@H](C)O)C(C)C)C(=O)N[C@@H](Cc1ccc(O)cc1)C(=O)N[C@@H](CCC(N)=O)C(=O)N[C@@H](Cc1ccccc1)C(=O)N[C@@H](C)C(=O)N[C@@H](CC(=O)O)C(=O)N[C@@H](CCCCN)C(=O)N[C@@H](CC(=O)O)C(=O)N[C@@H](CCCCN)C(=O)N[C@@H](CC(=O)O)C(=O)N[C@@H](CC(N)=O)C(=O)N[C@H](C(=O)N[C@@H](C)C(=O)N1CCC[C@H]1C(=O)N1CCC[C@H]1C(=O)N[C@H](C(=O)N[C@@H](CC(N)=O)C(=O)N[C@H](C(=O)NCC(=O)N[C@@H](CO)C(=O)N[C@@H](CC(N)=O)C(=O)NCC(=O)N1C[C@H](O)C[C@H]1C(N)=O)C(C)C)[C@@H](C)O)C(C)C [compound 23] (H-KCNTATCTVQRLAHQIYQFADKDKDNVAPPTNVGSNG[Hyp]-NH2; disulfide 2-7) |
